ChEMBL document CHEMBL4507301 (2021)

Legend:
[1] = biological target: Serine/threonine-protein kinase 4 (Homo sapiens) (UniProt Q13043); details: Compound concentration 1000.0 nM
[2] = biological target: TGF-beta receptor type-2 (Homo sapiens) (UniProt P37173); details: Compound concentration 1000.0 nM
[3] = biological target: Serine/threonine-protein kinase Chk2 (Homo sapiens) (UniProt O96017); details: Compound concentration 1000.0 nM
[4] = biological target: Serine/threonine-protein kinase MARK1 (Homo sapiens) (UniProt Q9P0L2); details: Compound concentration 1000.0 nM
[5] = biological target: Activin receptor type-1B (Homo sapiens) (UniProt P36896); details: Compound concentration 1000.0 nM
[6] = biological target: Tyrosine-protein kinase Blk (Homo sapiens) (UniProt P51451); details: Compound concentration 1000.0 nM
[7] = biological target: Serine/threonine-protein kinase Nek9 (Homo sapiens) (UniProt Q8TD19); details: Compound concentration 1000.0 nM
[8] = biological target: Sodium-dependent noradrenaline transporter (Homo sapiens) (UniProt P23975); details: Compound concentration 10.0 uM
[9] = biological target: Ephrin type-B receptor 3 (Homo sapiens) (UniProt P54753); details: Compound concentration 1000.0 nM
[10] = system: Mast/stem cell growth factor receptor Kit (Homo sapiens), P10721 [D816V]; details: Compound concentration 1000.0 nM
Mast/stem cell growth factor receptor Kit (Homo sapiens), P10721 [D816V], sequence (P10721 whole entry D816V): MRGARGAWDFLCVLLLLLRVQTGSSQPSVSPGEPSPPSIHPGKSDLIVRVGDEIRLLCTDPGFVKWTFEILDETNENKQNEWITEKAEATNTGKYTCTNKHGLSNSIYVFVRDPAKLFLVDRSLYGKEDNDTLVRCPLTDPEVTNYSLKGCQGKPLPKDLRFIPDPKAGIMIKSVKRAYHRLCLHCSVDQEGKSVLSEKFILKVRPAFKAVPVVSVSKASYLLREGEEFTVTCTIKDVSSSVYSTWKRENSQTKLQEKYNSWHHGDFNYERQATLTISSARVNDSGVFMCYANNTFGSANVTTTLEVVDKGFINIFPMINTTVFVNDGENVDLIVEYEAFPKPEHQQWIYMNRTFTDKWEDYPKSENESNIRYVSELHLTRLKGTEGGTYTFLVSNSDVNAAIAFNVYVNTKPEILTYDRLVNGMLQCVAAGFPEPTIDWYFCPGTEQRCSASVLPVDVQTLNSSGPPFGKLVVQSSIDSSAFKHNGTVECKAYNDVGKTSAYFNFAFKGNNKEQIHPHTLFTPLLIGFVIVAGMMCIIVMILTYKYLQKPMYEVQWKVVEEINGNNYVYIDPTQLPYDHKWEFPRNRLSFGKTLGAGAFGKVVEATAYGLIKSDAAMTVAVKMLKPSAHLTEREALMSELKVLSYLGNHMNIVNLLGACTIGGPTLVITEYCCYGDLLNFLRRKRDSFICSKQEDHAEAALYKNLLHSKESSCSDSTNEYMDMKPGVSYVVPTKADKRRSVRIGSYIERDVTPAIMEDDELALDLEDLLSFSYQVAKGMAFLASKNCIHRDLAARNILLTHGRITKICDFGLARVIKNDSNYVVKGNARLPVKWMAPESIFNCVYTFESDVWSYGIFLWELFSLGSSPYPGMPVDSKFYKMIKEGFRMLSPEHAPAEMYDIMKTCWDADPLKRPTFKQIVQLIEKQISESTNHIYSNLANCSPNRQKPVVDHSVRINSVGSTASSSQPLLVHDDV

[11] = biological target: 5-hydroxytryptamine receptor 1B (Homo sapiens) (UniProt P28222); details: Compound concentration 10.0 uM
[12] = system: Tyrosine-protein kinase ABL1 (Homo sapiens), P00519 [F317L]; details: Compound concentration 1000.0 nM
[13] = biological target: Mast/stem cell growth factor receptor Kit (Homo sapiens) (UniProt P10721); details: Compound concentration 1000.0 nM
[14] = biological target: Ankyrin repeat and protein kinase domain-containing protein 1 (Homo sapiens) (UniProt Q8NFD2); details: Compound concentration 1000.0 nM
[15] = biological target: G protein-coupled receptor kinase 3 (Homo sapiens) (UniProt P35626); details: Compound concentration 1000.0 nM
[16] = system: Mast/stem cell growth factor receptor Kit (Homo sapiens), P10721 [V559D,V654A]; details: Compound concentration 1000.0 nM
Mast/stem cell growth factor receptor Kit (Homo sapiens), P10721 [V559D,V654A], sequence (P10721 whole entry V559D/V654A): as the sequence (P10721 whole entry D816V) above, with V559D, V654A, V816D counted along it

[17] = biological target: Serine/threonine-protein kinase ICK (Homo sapiens) (UniProt Q9UPZ9); details: Compound concentration 1000.0 nM
[18] = biological target: Aurora kinase C (Homo sapiens) (UniProt Q9UQB9); details: Compound concentration 1000.0 nM
[19] = biological target: Rho-associated protein kinase 1 (Homo sapiens) (UniProt Q13464); details: Compound concentration 1000.0 nM
[20] = biological target: Protein kinase C iota type (Homo sapiens) (UniProt P41743); details: Compound concentration 1000.0 nM
[21] = biological target: Mitogen-activated protein kinase kinase kinase 5 (Homo sapiens) (UniProt Q99683); details: Compound concentration 1000.0 nM
Mitogen-activated protein kinase kinase kinase 5 (Homo sapiens), sequence (Q99683 whole entry): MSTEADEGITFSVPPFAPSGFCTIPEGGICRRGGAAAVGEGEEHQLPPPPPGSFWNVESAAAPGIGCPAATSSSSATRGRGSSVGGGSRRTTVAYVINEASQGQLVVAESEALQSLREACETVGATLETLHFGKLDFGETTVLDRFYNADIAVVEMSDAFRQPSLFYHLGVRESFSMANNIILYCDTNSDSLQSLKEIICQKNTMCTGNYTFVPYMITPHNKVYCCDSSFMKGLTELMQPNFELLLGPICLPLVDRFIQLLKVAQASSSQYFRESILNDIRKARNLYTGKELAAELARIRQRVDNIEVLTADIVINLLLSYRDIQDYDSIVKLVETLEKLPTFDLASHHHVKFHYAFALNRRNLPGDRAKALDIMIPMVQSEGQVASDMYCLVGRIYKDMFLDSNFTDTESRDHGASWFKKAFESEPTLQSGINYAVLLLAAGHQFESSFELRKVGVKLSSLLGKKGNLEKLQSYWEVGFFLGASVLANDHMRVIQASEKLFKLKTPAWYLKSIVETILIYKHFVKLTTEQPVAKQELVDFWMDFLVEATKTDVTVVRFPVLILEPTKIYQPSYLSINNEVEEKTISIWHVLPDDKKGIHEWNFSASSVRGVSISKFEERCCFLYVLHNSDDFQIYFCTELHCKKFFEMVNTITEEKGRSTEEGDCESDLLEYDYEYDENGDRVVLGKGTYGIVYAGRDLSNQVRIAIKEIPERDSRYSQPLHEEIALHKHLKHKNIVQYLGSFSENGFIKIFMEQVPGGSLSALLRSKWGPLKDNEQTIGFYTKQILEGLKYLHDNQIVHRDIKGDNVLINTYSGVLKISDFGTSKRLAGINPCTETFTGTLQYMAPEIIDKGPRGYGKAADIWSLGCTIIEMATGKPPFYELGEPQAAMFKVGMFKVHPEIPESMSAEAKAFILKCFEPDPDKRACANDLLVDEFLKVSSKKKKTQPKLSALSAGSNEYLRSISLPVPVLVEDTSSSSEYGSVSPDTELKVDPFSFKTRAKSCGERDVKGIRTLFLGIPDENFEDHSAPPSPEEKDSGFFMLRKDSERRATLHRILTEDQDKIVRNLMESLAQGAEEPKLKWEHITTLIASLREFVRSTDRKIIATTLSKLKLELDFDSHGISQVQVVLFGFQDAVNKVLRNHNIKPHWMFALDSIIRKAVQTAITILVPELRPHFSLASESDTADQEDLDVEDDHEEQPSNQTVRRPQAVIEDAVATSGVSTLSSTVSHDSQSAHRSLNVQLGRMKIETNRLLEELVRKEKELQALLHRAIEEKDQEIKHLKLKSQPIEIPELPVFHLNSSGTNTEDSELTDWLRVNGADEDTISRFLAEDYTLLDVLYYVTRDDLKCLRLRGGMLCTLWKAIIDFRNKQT

[22] = biological target: Cyclin-dependent kinase-like 5 (Homo sapiens) (UniProt O76039); details: Compound concentration 1000.0 nM
[23] = biological target: Mitogen-activated protein kinase kinase kinase 6 (Homo sapiens) (UniProt O95382); details: Compound concentration 1000.0 nM
[24] = biological target: Serine/threonine-protein kinase 32B (Homo sapiens) (UniProt Q9NY57); details: Compound concentration 1000.0 nM
[25] = biological target: 1-phosphatidylinositol 3-phosphate 5-kinase (Homo sapiens) (UniProt Q9Y2I7); details: Compound concentration 1000.0 nM
[26] = biological target: Mitogen-activated protein kinase kinase kinase 13 (Homo sapiens) (UniProt O43283); details: Compound concentration 1000.0 nM
[27] = biological target: Peripheral plasma membrane protein CASK (Homo sapiens) (UniProt O14936); details: Compound concentration 1000.0 nM
[28] = biological target: SRSF protein kinase 1 (Homo sapiens) (UniProt Q96SB4); details: Compound concentration 1000.0 nM
[29] = biological target: Muscarinic acetylcholine receptor M3 (Homo sapiens) (UniProt P20309); details: Compound concentration 10.0 uM
[30] = biological target: Ephrin type-A receptor 1 (Homo sapiens) (UniProt P21709); details: Compound concentration 1000.0 nM
[31] = biological target: Ephrin type-B receptor 2 (Homo sapiens) (UniProt P29323); details: Compound concentration 1000.0 nM
Rattus norvegicus = species on record: Rattus norvegicus; details: Compound concentration 10.0 uM
[32] = biological target: Serine/threonine-protein kinase MRCK gamma (Homo sapiens) (UniProt Q6DT37); details: Compound concentration 1000.0 nM
[33] = biological target: Cyclin-dependent kinase 14 (Homo sapiens) (UniProt O94921); details: Compound concentration 1000.0 nM
[34] = biological target: 5-hydroxytryptamine receptor 2B (Homo sapiens) (UniProt P41595); details: Compound concentration 10.0 uM
5-hydroxytryptamine receptor 2B (Homo sapiens), sequence (P41595 whole entry): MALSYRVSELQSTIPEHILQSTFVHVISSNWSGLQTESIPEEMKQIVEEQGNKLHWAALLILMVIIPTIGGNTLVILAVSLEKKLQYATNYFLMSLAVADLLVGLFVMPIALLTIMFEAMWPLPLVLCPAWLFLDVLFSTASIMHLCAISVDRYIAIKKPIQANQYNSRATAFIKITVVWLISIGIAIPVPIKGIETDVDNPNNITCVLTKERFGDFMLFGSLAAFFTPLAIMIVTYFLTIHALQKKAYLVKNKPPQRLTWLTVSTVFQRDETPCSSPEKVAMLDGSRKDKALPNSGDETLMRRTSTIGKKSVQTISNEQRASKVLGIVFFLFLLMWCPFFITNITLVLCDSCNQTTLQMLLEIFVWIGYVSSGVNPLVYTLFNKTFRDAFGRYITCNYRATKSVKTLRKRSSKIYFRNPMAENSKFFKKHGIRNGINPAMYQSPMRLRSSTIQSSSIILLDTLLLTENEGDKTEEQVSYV

[35] = biological target: Myosin light chain kinase, smooth muscle (Homo sapiens) (UniProt Q15746); details: Compound concentration 1000.0 nM
[36] = biological target: Eukaryotic translation initiation factor 2-alpha kinase 1 (Homo sapiens) (UniProt Q9BQI3); details: Compound concentration 1000.0 nM
[37] = biological target: Tyrosine-protein kinase BTK (Homo sapiens) (UniProt Q06187); details: Compound concentration 1000.0 nM
[38] = system: Receptor-type tyrosine-protein kinase FLT3 (Homo sapiens), P36888 [UNDEFINED MUTATION]; details: Compound concentration 1000.0 nM
Receptor-type tyrosine-protein kinase FLT3 (Homo sapiens), P36888 [UNDEFINED MUTATION], sequence (P36888 whole entry, looked up, stated change not applied): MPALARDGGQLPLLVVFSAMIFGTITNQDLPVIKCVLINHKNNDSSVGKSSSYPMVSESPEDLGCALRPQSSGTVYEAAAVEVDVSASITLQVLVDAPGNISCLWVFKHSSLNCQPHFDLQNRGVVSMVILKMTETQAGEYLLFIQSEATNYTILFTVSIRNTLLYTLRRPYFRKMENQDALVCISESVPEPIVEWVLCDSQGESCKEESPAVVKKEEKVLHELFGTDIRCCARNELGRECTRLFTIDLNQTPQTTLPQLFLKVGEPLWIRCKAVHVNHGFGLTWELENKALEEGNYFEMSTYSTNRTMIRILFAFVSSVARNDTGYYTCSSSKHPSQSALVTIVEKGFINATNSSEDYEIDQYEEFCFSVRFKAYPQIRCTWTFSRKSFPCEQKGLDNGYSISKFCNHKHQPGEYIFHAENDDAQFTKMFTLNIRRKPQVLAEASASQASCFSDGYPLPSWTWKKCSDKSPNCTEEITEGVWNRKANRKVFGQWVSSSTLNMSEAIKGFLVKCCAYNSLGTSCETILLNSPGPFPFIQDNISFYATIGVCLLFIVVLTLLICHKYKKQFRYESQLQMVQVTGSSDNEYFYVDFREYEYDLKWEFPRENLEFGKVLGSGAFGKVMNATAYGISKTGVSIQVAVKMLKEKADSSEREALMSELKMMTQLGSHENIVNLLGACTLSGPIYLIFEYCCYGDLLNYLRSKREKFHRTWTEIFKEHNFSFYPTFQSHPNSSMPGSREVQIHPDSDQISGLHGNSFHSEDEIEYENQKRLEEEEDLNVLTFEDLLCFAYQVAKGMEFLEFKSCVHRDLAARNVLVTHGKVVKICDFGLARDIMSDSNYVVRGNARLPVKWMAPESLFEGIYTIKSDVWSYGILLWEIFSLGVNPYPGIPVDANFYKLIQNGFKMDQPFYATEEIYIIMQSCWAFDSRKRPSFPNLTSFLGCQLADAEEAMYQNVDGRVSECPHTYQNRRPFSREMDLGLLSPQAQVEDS

[39] = system: eIF-2-alpha kinase GCN2 (Homo sapiens), Q9P2K8 [S808G]; details: Compound concentration 1000.0 nM
[40] = biological target: Serine/threonine-protein kinase TAO3 (Homo sapiens) (UniProt Q9H2K8); details: Compound concentration 1000.0 nM
[41] = biological target: 5-hydroxytryptamine receptor 1D (Homo sapiens) (UniProt P28221); details: Compound concentration 10.0 uM
[42] = system: Epidermal growth factor receptor (Homo sapiens), P00533 [G719C]; details: Compound concentration 1000.0 nM
[43] = biological target: Cyclin-dependent kinase 2 homolog (Plasmodium falciparum (isolate 3D7)) (UniProt P61075); details: Compound concentration 1000.0 nM
Cyclin-dependent kinase 2 homolog (Plasmodium falciparum (isolate 3D7)), sequence (P61075 whole entry): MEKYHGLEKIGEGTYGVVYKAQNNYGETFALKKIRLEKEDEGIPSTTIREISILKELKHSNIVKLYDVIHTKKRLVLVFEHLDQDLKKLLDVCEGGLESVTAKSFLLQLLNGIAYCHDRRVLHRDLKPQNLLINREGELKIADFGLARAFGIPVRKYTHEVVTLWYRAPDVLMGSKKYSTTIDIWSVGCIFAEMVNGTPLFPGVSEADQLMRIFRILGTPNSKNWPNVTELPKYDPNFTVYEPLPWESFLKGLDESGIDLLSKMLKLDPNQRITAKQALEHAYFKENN

[44] = biological target: Tyrosine-protein kinase Tec (Homo sapiens) (UniProt P42680); details: Compound concentration 1000.0 nM
[45] = system: Receptor-type tyrosine-protein kinase FLT3 (Homo sapiens), P36888 [UNDEFINED MUTATION]; details: Compound concentration 1000.0 nM; remark: listed apart in the source

C[C@H](c1cccc(C#N)c1)n1cc(Cl)cc(C(N)=O)c1=N [(R)-9s]
inactive: residual activity [1] 100% | residual activity [2] 100% | residual activity [3] 100% | residual activity [4] 97% | residual activity [5] 100% | residual activity [6] 78% | residual activity [7] 79% | inhibition [8] -7.01% | residual activity [9] 78% | residual activity [10] 87% | inhibition [11] 9.16% | residual activity [12] 75% | residual activity [13] 98% | residual activity [14] 98% | residual activity [15] 76% | residual activity [16] 96% | residual activity [17] 98% | residual activity [18] 91% | residual activity [19] 71% | residual activity [20] 100% | residual activity [21] 85% | residual activity [22] 73% | residual activity [23] 91% | residual activity [24] 100% | residual activity [25] 91% | residual activity [26] 97% | residual activity [27] 82% | residual activity [28] 96% | inhibition [29] -8.15% | residual activity [30] 97% | residual activity [31] 66% | inhibition (Rattus norvegicus) 10.7% | residual activity [32] 77% | residual activity [33] 100% | inhibition [34] 9.88% | residual activity [35] 100% | residual activity [36] 100% | residual activity [37] 91% | residual activity [38] 82% | residual activity [40] 67% | inhibition [41] 34.1% | residual activity [42] 100% | residual activity [43] 100% | residual activity [44] 100% | residual activity [45] 100%
active: residual activity [39] 45%

C[C@@H](c1cccc(C#N)c1)n1cc(Cl)cc(C(N)=O)c1=N [(S)-9s]
inactive: residual activity [1] 100% | residual activity [2] 100% | residual activity [3] 100% | residual activity [4] 100% | residual activity [5] 100% | residual activity [6] 85% | residual activity [7] 97% | inhibition [8] -4.73% | residual activity [9] 85% | residual activity [10] 94% | inhibition [11] -2.19% | residual activity [12] 85% | residual activity [13] 78% | residual activity [14] 95% | residual activity [15] 81% | residual activity [16] 99% | residual activity [17] 81% | residual activity [18] 96% | residual activity [19] 71% | residual activity [20] 93% | residual activity [21] 100% | residual activity [22] 89% | residual activity [23] 79% | residual activity [24] 100% | residual activity [25] 100% | residual activity [26] 100% | residual activity [27] 79% | residual activity [28] 100% | inhibition [29] -6.17% | residual activity [30] 77% | residual activity [31] 80% | inhibition (Rattus norvegicus) 1.07% | residual activity [32] 100% | residual activity [33] 100% | inhibition [34] 3.93% | residual activity [35] 88% | residual activity [36] 95% | residual activity [37] 98% | residual activity [38] 85% | residual activity [39] 50% | residual activity [40] 75% | inhibition [41] 3.77% | residual activity [42] 100% | residual activity [43] 100% | residual activity [44] 88% | residual activity [45] 98%
